{"source": "patent US20090088340A1", "about": "“METHODS FOR PREDICTING THE REDUCTION/OXIDATION (REDOX) REACTION ACTIVITY OF METAL COMPLEXES” (WESTERN CAROLINA UNIVERSITY, priority 2007, published 2009)", "key": {"Cu/Zn SOD [1]": {"molecular_target": "T1, Cu/Zn SOD (Homo sapiens, UniProt P00441)", "T1 sequence (P00441 whole entry)": "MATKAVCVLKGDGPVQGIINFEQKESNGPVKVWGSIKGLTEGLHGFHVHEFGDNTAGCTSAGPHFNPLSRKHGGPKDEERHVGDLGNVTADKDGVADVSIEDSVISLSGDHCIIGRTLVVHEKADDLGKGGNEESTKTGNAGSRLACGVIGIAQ", "experiment": "Reaction of Cu/Zn SOD with superoxide in the presence of an inhibitor", "assay_type": "biochemical", "conditions": "100 μM, 20 mM phosphate buffered saline pH 7.2 (neutral conditions)", "protocol": "SOD was added to give an NMR relaxation rate of 28 s^−1. […] See Huang et al., Nature, 2000, 407, 390-395. […] It was also determined that under these conditions, reaction of the enzyme with superoxide was not inhibited."}, "Cu/Zn SOD [2]": {"molecular_target": "T1, Cu/Zn SOD", "conditions": "100 μM; Huang et al., Nature 2000; cited from earlier work"}, "[3]": {"experiment": "Metal/fluoride association from F^− 19F NMR transverse relaxation enhancement (CPMG)", "assay_type": "physicochemical", "conditions": "for kapp,X− (Flouride Association Reaction) / ΔH^‡ (Flouride Association Reaction): iron(III) complexes; for kapp,X− (Flouride Association Reaction) / kapp,X− (Anion Binding Data): 25° C., 90% H2O/10% D2O; for ΔH^‡ (Flouride Association Reaction): activation enthalpy; for ΔH^‡ (Anion Binding Data): manganese(II) complexes; for ΔH^‡ (Anion Binding Data) / kapp,X− (Anion Binding Data): metal/F^− association", "text": "CPMG is the standard technique for measuring transverse NMR relaxation times (T2). See, for example, Braun et al., “150 and More Basic NMR Experiments,” Wiley-VCH Weinheim, 1998, page 159.\nRate constants for metal/probe association reactions can be related directly to the effects of the metal complex on the NMR relaxation rates of probe nuclei.\nR2,obs−R2,dia=kapp,F−[M] (6)\nwhere R2,dia is the relaxation rate in diamagnetic solution and kapp,F− is the apparent second order rate constant for metal/F^− association. The effects of eleven paramagnetic metal complexes, Fe^IIIEDTA(H2O)^−, Fe^IIIEDTA(OH)^2−, Fe^IIIPDTA^−, Fe^IIIDTPA^2−, Fe^III2O(TTHA)^2−, Fe^III(CN)6^3−, Mn^IIEDTA(H2O)^2−, Mn^IIPDTA^2−, Mn^IIβ-EDDADP^2−, Mn^IIPO4^−, and Cu/Zn SOD on F^− ion ^19F NMR transverse relaxation rates (R2=1/T2) were studied in aqueous solutions as a function of temperature.\nWithout being bound to any one theory, the curvature of the plot can arise from a similarity in the magnitudes of outer-sphere and inner-sphere contributions to relaxation (R2,OS and R2,IS). See Dwek, R. A., Nuclear Magnetic Resonance in Biochemistry, Clarendon, Oxford, 1973. […] See Dwek, R. A., Nuclear Magnetic Resonance in Biochemistry, Clarendon, Oxford, 1973. To estimate the contribution of R2,OS, relaxation enhancement of the ^19F resonance of the trifluoroacetate anion (tfa) by Fe^IIIDTPA^2− was measured. R2,IS for the tfa resonance should be negligible due to the low basicity of the anion and the absence of a through bond pathway for magnetic interaction between the paramagnetic center and the ^19F nuclei. For the tfa resonance, R2,obs decreased with increasing temperature consistent with an outer-sphere interaction.\nwhere α, β, and γ are constants. The γ term for F^− relaxation in Equation 7 was set equal to the slope of the least squares line for the tfa data, and ΔH^‡, α, and β were refined to give the curved trend line following the F^− data in FIG. 6. Dashed lines (a) and (b) in FIG. 6 represent the predicted outer-sphere and inner-sphere contributions to the relaxation rate, respectively. The 25° C. association rate constant and activation enthalpy in Table 1 (and used in FIG. 2) are from this refinement."}, "[4]": {"conditions": "cited from earlier work; for kapp,O2− (Superoxide Reaction): iron(III) complexes, aqueous solution, literature values (footnotes b, c, d, f); for kapp,O2,A (Superoxide Reaction Data): full value printed in cell"}, "[5]": {"conditions": "trend line of FIG. 8; pH 4.0 to 9.2", "method": "While Fe^IIIEDTA(OH)^2− is usually formed by deprotonation of coordinated water, its formation can also be thought of (in thermodynamic terms) as a ligand exchange. To investigate the thermodynamics of the formation of Fe^IIIEDTA(OH)^2−, the reaction of F^− with Fe^IIIEDTA(H2O)^− was studied as a function of pH. For Fe^IIIEDTA(H2O)^−, relaxation enhancements were measured for thirteen buffer conditions, having pH values ranging from 4.0 to 9.2. […] In this pH range, F^− 19F relaxation enhancement is governed by two protic equilibria, hydrolysis of Fe^IIIEDTA(H2O)^− and protonation of F^−, as described by Equations 9 and 10:\nFitting the data at pH>6 gives the thermodynamic equilibrium data for hydroxide binding."}, "[6]": {"conditions": "MeOPH^− association; from Summers et al. 2001; cited from earlier work"}, "[7]": {"experiment": "Reaction of metal complexes with superoxide (pulse radiolysis and literature rate data)", "assay_type": "physicochemical", "conditions": "manganese(II) complexes, pulse radiolysis; for kapp,O2,B × 10^−2 (Superoxide Reaction Data): printed value is k × 10^−2; for kapp,O2,A × 10^−7 (Superoxide Reaction Data): printed value is k × 10^−7", "protocol": "In addition, the rates at which O2.^− reacts with Fe^IIIPDTA^−, Mn^IIEDTA(H2O)^2−, Mn^IIPDTA^2−, and Mn^IIβ-EDDADP^2− were determined by pulse radiolysis. […] The data for the SOD enzyme was previously reported. See Viglino et al., J. Magn. Res., 1979, 34, 265. These reactivity patterns are consistent with literature precedents for similar complexes.\nRapid reactions of Fe^3+ with superoxide (O2.^−) appear to occur via inner-sphere mechanisms where metal/O2.^− association is rate limiting. Under this scenario, rates of metal/O2.^− reactions are expected to correlate with rates at which the metal complexes coordinate F^−.\nIn addition to metal/F^− association data, FIG. 2 includes published rate data for reactions of a water soluble manganese(III) porphyrin (Mn^IIITM-2-PyP^5+). One of the gray squares in FIG. 2 compares the rate of metal/MeOPH association to the catalytic rate constant for O2.^− dissmutation (kcat) for Mn^IIITM-2-PyP^5+. See Summers et al., Inorg. Chem., 2001, 40, 6547. Values of kcat for manganese(III) porphyrins are thought to be limited by rates of Mn^3+ reduction. See Batinic-Haberle et al., Inorg. Chem., 1999, 38, 4011-4022."}, "SOD": {"molecular_target": "SOD (Bos taurus, UniProt P00442)", "sequence (P00442 2-152 limits assumed)": "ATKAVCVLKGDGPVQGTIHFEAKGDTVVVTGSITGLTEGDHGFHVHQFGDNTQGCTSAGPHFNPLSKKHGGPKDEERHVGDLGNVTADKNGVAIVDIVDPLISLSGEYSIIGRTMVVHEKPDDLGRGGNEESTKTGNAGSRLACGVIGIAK", "conditions": "from Viglino et al. 1979; cited from earlier work"}}, "note": "Like-named read-outs stand apart in the source and are kept apart here. Marks after values point to notes of the source that are not given here.", "data": [{"smiles": "COc1cc2c(cc1O)CC[C@@H]1[C@@H]2CC[C@]2(C)[C@@H](O)CC[C@@H]12", "note": "[Complex 2ME2, 2-methoxyestradiol]", "values": [{"measurement": "reaction of the enzyme with superoxide", "setting": "Cu/Zn SOD [1]", "value": "not inhibited"}, {"measurement": "inhibition of Cu/Zn SOD previously reported", "setting": "Cu/Zn SOD [2]", "value": "complete inhibition"}]}, {"smiles": "O=C([O-])CN(CCN(CCN(CC(=O)[O-])CC(=O)[O-])CC(=O)[O-])CCN(CC(=O)[O-])CC(=O)[O-].[Fe+3].[Fe+3].[O-2]", "note": "[Fe^III2O(TTHA)^2−]", "values": [{"measurement": "kapp,X− (Flouride Association Reaction)", "setting": "[3]; pH 6", "value": 12, "unit": "M⁻¹ s⁻¹"}, {"measurement": "ΔH^‡ (Flouride Association Reaction)", "setting": "[3]", "value": 9.32, "unit": "kcal/mol"}, {"measurement": "kapp,O2− (Superoxide Reaction)", "setting": "[4]", "value": "1.2 × 10^4 (d) M^−1s^−1"}]}, {"smiles": "O=C([O-])CN(CCN(CC(=O)[O-])CC(=O)[O-])CCN(CC(=O)[O-])CC(=O)[O-].[Fe+3]", "note": "[Fe^IIIDTPA^2−, iron (III) diethylenetriaminepentaacetate]", "values": [{"measurement": "kapp,X− (Flouride Association Reaction)", "setting": "[3]; pH 6", "value": 240, "unit": "M⁻¹ s⁻¹"}, {"measurement": "ΔH^‡ (Flouride Association Reaction)", "setting": "[3]", "value": 5.26, "unit": "kcal/mol"}, {"measurement": "kapp,O2− (Superoxide Reaction)", "setting": "[4]", "value": "6 × 10^3 (c) M^−1s^−1"}]}, {"smiles": "O.O=C([O-])CN(CCN(CC(=O)[O-])CC(=O)[O-])CC(=O)[O-].[Fe+3]", "note": "[Fe^IIIEDTA(H2O)^−, iron (III) ethylenediamine-N,N,N″,N″-tetraacetic acid hydrate]", "values": [{"measurement": "kapp,X− (Flouride Association Reaction)", "setting": "[3]; pH 6", "value": 93000, "unit": "M⁻¹ s⁻¹"}, {"measurement": "ΔH^‡ (Flouride Association Reaction)", "setting": "[3]", "value": 9.32, "unit": "kcal/mol"}, {"measurement": "apparent rate constant for F^− association", "setting": "[3]; trend line of FIG. 8, pH 4.0 to 9.2", "value": "4e+06", "unit": "M⁻¹ s⁻¹"}, {"measurement": "apparent rate constant for HF association", "setting": "[5]", "value": 93000, "unit": "M⁻¹ s⁻¹"}, {"measurement": "kapp,O2− (Superoxide Reaction)", "setting": "[4]", "value": "1.9 × 10^6 (f) M^−1s^−1"}]}, {"smiles": "O.O.O.O.O.O.[Mn+2]", "note": "[Mn^II(H2O)6^2+]", "values": [{"measurement": "kapp,O2,A (Superoxide Reaction Data)", "setting": "[4]; from Pick-Kaplan and Rabini", "value": "1.1 × 10^8 (f) M^−1s^−1"}, {"measurement": "kapp,X− (Anion Binding Data)", "setting": "[6]", "value": "5.8 × 10^6 (e) M^−1s^−1"}, {"measurement": "ΔH^‡ (Anion Binding Data)", "setting": "[6]", "value": "47 ^(e) kJ/mol"}]}, {"smiles": "O.O=C([O-])CN(CCN(CC(=O)[O-])CC(=O)[O-])CC(=O)[O-].[Mn+2]", "note": "[Mn^IIEDTA(H2O)^2−]", "values": [{"measurement": "kapp,O2,B × 10^−2 (Superoxide Reaction Data)", "setting": "[7]", "value": "4.0 ± 0.8", "unit": "s^−1"}, {"measurement": "kapp,O2,A × 10^−7 (Superoxide Reaction Data)", "setting": "[7]", "value": "1.24 ± 0.24", "unit": "M^−1s^−1"}, {"measurement": "ΔH^‡ (Anion Binding Data)", "setting": "[3]", "value": 7.41, "unit": "kcal/mol"}, {"measurement": "kapp,X− (Anion Binding Data)", "setting": "[3]; pH 7", "value": 60000, "unit": "M⁻¹ s⁻¹"}]}, {"smiles": "O=P([O-])([O-])[O-].[Mn+2]", "note": "[Mn^IIPO4 ^−]", "values": [{"measurement": "ΔH^‡ (Anion Binding Data)", "setting": "[3]", "value": 10, "unit": "kcal/mol"}, {"measurement": "kapp,X− (Anion Binding Data)", "setting": "[3]; pH 6", "value": "1.8 × 10^6 (b) M^−1s^−1"}, {"measurement": "kapp,O2,A (Superoxide Reaction Data)", "setting": "[4]; pH 6, from Cabelli and Bielski", "value": "5.0 × 10^7 (b,c) M^−1s^−1"}]}, {"smiles": "O=C([O-])CCN(CCN(CCC(=O)[O-])CC(=O)[O-])CC(=O)[O-].[Mn+2]", "note": "[Mn^IIβ-EDDADP^2−]", "values": [{"measurement": "kapp,O2,B × 10^−2 (Superoxide Reaction Data)", "setting": "[7]", "value": "3.5 ± 0.7", "unit": "s^−1"}, {"measurement": "kapp,O2,A × 10^−7 (Superoxide Reaction Data)", "setting": "[7]", "value": "1.95 ± 0.40", "unit": "M^−1s^−1"}, {"measurement": "ΔH^‡ (Anion Binding Data)", "setting": "[3]", "value": 5.26, "unit": "kcal/mol"}, {"measurement": "kapp,X− (Anion Binding Data)", "setting": "[3]; pH 7", "value": 130000, "unit": "M⁻¹ s⁻¹"}]}, {"smiles": "F", "note": "[fluoride, fluoride anion]", "values": [{"measurement": "association constant for fluoride binding", "setting": "SOD", "value": 1.2, "unit": "M⁻¹"}]}]}
